From patent EP1860442A2, “Neurosteroids as markers for Alzheimer's disease” (Georgetown University, priority 2000, dated 2001)

Experiments:
MGM-1 cells [1] = test: β-Amyloid regulation of the alternative pathway: ROS (2,7-DCF fluorescence); assay type: cell-based, human; conditions: 50 mM Aβ versus control, p < 0.01
Description: β-Amyloid Regulation of the Alternative Pathway: MGM-1 cells were plated on 96 well (~5,000 cells/well, for ROS measurements) or 24 well (~15,000 cells/well, for D measurements) plates (Coming Costar, Acton, MA). At the same time, 1mg Ab (Ab (1-42), AnaSpec Inc., San Jose, CA) was dissolved in 0.5 ml serum-free media and incubated at 4C for aggregation. 24 hours later, cells were incubated in DMEM with 10% fetal bovine serum and […] or […] and 10 mM Vitamin E (Sigma, St. Louis, MO). Control samples were incubated in DMEM with 10% FBS. Cells were incubated at 37C and 6% CO2 for at least 12 hours and processed for ROS generation (see below) or D synthesis as described above for the alternative experiments.
Treatment media was removed and the cells were washed with PBS. The fluorescent probe 2,7- dichlorofluorescin diacetate (2,7-DCF, Molecular Probes, Inc., Eugene, OR) was used to measure levels of oxidative stress (48). Cells were incubated with […] 2,7-DCF, fluorescence was measured at 485nm/535nm using the Victor^2 Multilabel Counter (EG&G Wallac, Gaithersburg, MD) and values of cellular fluorescence were obtained.

MGM-1 cells [2] = test: β-Amyloid regulation of the alternative pathway: D synthesis; assay type: cell-based, human; conditions: 50 mM Aβ versus control, p < 0.01
Description: Alternative Pathway: To determine the amount ofD synthesized by the alternative pathway cells were treated as previously described (15). In brief, cells were washed and oligodendrocytes and astrocytes were incubated with increasing concentrations of FeSO4 in serum free media, with and without SU 10603 (10 mM); neurons were incubated in serum free media containing 5 mM P plus FeSO4, with and without 10 mM SU 10603. After two hours, cells and media were homogenized and extracted as described above. Extracts were run on C18 TLC plates (Whatman, Clifton, NJ) with a mobile phase of 95% methanol (v/v); radiolabeled standards for P, progesterone, and D were run on each plate, and appropriate steroid fractions were collected for each sample. TLC fractions were extracted with 2 ml diethyl ether (Fluka, New York) and evaporated. TLC extracts were assayed by specific radioimmunoassay (RIA). […]
RIA using antibodies specific for each steroid (ICN Pharmaceuticals, Costa Mesa, CA Mesa) was used to measure P, progesterone and D levels. The data were analyzed using the IBM-PC RIA Data Reduction Program (version 4.1) from Jaffe and Associates (Silver Spring, MD). Levels of β-amyloid species in AD and control brain samples were analyzed using 4G8 (Senetex PLC, Napa, CA), a monoclonal antibody to β-amyloid peptide that recognizes amino acids 17-24. […]

Substance: Aβ: β-amyloid peptide Ab (1-42), AnaSpec Inc., aggregated; a component of Alzheimer's disease plaques
- 2,7-DCF fluorescence (ROS) (MGM-1 cells [1]): significant increase
- D levels (MGM-1 cells [2]): increased D levels significantly over control
